Reference: patent publication US6841548B2, “Pharmaceutical preparations containing estra-1,3,5(10)-triene derivatives” (Schering AG, priority 1994, dated 2005)

Key:
ovariectomated rats [1] = assay: Oral estrogenic effects: uterus weights in ovariectomated rats; format: in vivo, rat
Description: (§1) The laboratory animals, adult female rats (breeder: HSD/WIN:WU) were ovariectomated on day 14. Treatment started two weeks later by a single oral application per day of the respective test substance. The dosages given for esters refer to the steroid portion of the substances. The tests were made in three groups (A, B, C) at various points in time. This is why there is a deviation in control group values. The tests of series A, B, and C can therefore be compared among each other if the values for the respective control groups are taken into account.
(§2) The procedure of allocating animals to groups was randomized. The experiment was carried out as a block test. The animals were weighed at the beginning and at the end of the experiment.
(§3) The start of treatment was defined as day 1 (=d1), treatment was finished on day 7 (=d7); the animals were killed on day 8, various organs (uteri, adrenal glands, liver) were removed, weighed and deep-frozen (−196° C.) for further examination.

ovariectomated rats [2] = assay: Oral estrogenic effects: weights of adrenal glands in ovariectomated rats; format: in vivo, rat
Description: as §1, §2, §3

ovariectomated rats [3] = assay: Oral estrogen treatment: serum IGF1 (somatomedin C), RIA; format: in vivo, rat; set-up: unit not given here; details: Experiment A
Description: as §1, §2, §3
(§4) Blood was taken from the retrobulbar plexus under ether anaesthesia prior to treatment (d0), and on (d4) and (d8). IGF1, angiotensin I, cholesterol and HDL cholesterol were determined in the serum obtained.
IGF1: RIA by bioMérieux Co.;

ovariectomated rats [4] = assay: Hepatic parameters: serum angiotensin I, modified RIA for renin activity; format: in vivo, rat; set-up: Angiotensin I: unit not given here; details: for Angiotensin I: Experiment A
Description: as §1, §2, §3, §4
angiotensin: modified RIA for renin activity by Sorin Co.

ovariectomated rats [5] = assay: Hepatic parameters: total cholesterol levels in serum, enzymatic test; format: in vivo, rat; details: Experiment A
Experimental: The laboratory animals, adult female rats (breeder: HSD/WIN:WU) were ovariectomated on day 14. Treatment started two weeks later by a single oral application per day of the respective test substance. The dosages given for esters refer to the steroid portion of the substances. The tests were made in three groups (A, B, C) at various points in time.
as §2, §3, §4
(§5) cholesterol/HDL: enzymatic tests, photometric determination, reagents by Dr Bruno Lange GmbH.

ovariectomated rats [6] = assay: Hepatic parameters: HDL cholesterol levels in serum, enzymatic test; format: in vivo, rat; details: Experiment A
Description: as §1, §2, §3, §4, §5

[7] = oral, humans, Goldzieher study; cited from earlier work
[8] = Experiment A, 0.1 μg/animal/day p.o. d1-d7
[9] = Experiment A, 1 μg/animal/day p.o. d1-d7
[10] = Experiment A, 10 μg/animal/day p.o. d1-d7
[11] = Experiment A, 100 μg/animal/day p.o. d1-d7
[12] = Experiment B, 10 μg/animal/day p.o. d1-d7
[13] = day 4, 0.1 μg/animal/day p.o. d1-d7
[14] = day 4, 1 μg/animal/day p.o. d1-d7
[15] = day 4, 10 μg/animal/day p.o. d1-d7
[16] = day 4, 100 μg/animal/day p.o. d1-d7
[17] = day 8, 0.1 μg/animal/day p.o. d1-d7
[18] = day 8, 1 μg/animal/day p.o. d1-d7
[19] = day 8, 10 μg/animal/day p.o. d1-d7
[20] = day 8, 100 μg/animal/day p.o. d1-d7

- Angiotensin I (ovariectomated rats [4]; [13]): 408.2 ± 31.2
- Angiotensin I (ovariectomated rats [4]; [14]): 402.2 ± 30.3
- Angiotensin I (ovariectomated rats [4]; [15]): 572.2 ± 35.0
- Angiotensin I (ovariectomated rats [4]; [16]): 930.1 ± 146.2
- Angiotensin I (ovariectomated rats [4]; [17]): 473.7 ± 19.7
- Angiotensin I (ovariectomated rats [4]; [18]): 492.6 ± 29.1
- Angiotensin I (ovariectomated rats [4]; [19]): 498.7 ± 26.1
- Angiotensin I (ovariectomated rats [4]; [20]): 833.1 ± 137.2
- Effect on angiotensin I (AI) values, in words (ovariectomated rats [4]; doses of 10 or 100 μg, detectable as early as day 4): sharp increases of AI
- Total cholesterol levels (mean value ± standard deviation) (ovariectomated rats [5]; [13]): 81.0 ± 3.3 mg/dL
- Total cholesterol levels (mean value ± standard deviation) (ovariectomated rats [5]; [14]): 82.4 ± 15.8 mg/dL
- Total cholesterol levels (mean value ± standard deviation) (ovariectomated rats [5]; [15]): 30.3 ± 9.6 mg/dL
- Total cholesterol levels (mean value ± standard deviation) (ovariectomated rats [5]; [16]): 6.8 ± 3.2 mg/dL
- Total cholesterol levels (mean value ± standard deviation) (ovariectomated rats [5]; [17]): 86.5 ± 9.6 mg/dL
- Total cholesterol levels (mean value ± standard deviation) (ovariectomated rats [5]; [18]): 80.2 ± 14.4 mg/dL
- Total cholesterol levels (mean value ± standard deviation) (ovariectomated rats [5]; [19]): 39.8 ± 10.2 mg/dL
- Total cholesterol levels (mean value ± standard deviation) (ovariectomated rats [5]; [20]): 5.5 ± 3.3 mg/dL
- HDL cholesterol levels (mean value ± standard deviation) (ovariectomated rats [6]; [13]): 49.6 ± 2.9 mg/dL
- HDL cholesterol levels (mean value ± standard deviation) (ovariectomated rats [6]; [14]): 47.1 ± 8.5 mg/dL
- HDL cholesterol levels (mean value ± standard deviation) (ovariectomated rats [6]; [15]): 19.5 ± 8.4 mg/dL
- HDL cholesterol levels (mean value ± standard deviation) (ovariectomated rats [6]; [16]): 3.6 ± 1.3 mg/dL
- HDL cholesterol levels (mean value ± standard deviation) (ovariectomated rats [6]; [17]): 52.2 ± 4.1 mg/dL
- HDL cholesterol levels (mean value ± standard deviation) (ovariectomated rats [6]; [18]): 49.5 ± 6.9 mg/dL
- HDL cholesterol levels (mean value ± standard deviation) (ovariectomated rats [6]; [19]): 26.5 ± 7.8 mg/dL
- HDL cholesterol levels (mean value ± standard deviation) (ovariectomated rats [6]; [20]): 2.4 ± 0.9 mg/dL
Structure (SMILES): C#C[C@]1(O)CC[C@H]2[C@@H]3CCc4cc(O)ccc4[C@H]3CC[C@@]21C [EE, ethinyl estradiol]
- Uterus weights (mean value) (ovariectomated rats [1]; [8]): 152.2 mg
- Uterus weights (mean value) (ovariectomated rats [1]; [9]): 195.8 mg
- Uterus weights (mean value) (ovariectomated rats [1]; [10]): 282.4 mg
- Uterus weights (mean value) (ovariectomated rats [1]; [11]): 441.2 mg
- Uterus weights (mean value) (ovariectomated rats [1]; [12]): 352.59 mg
- Weights of adrenal glands (mean value) (ovariectomated rats [2]; [8]): 53.7 mg
- Weights of adrenal glands (mean value) (ovariectomated rats [2]; [9]): 58.9 mg
- Weights of adrenal glands (mean value) (ovariectomated rats [2]; [10]): 59.0 mg
- Weights of adrenal glands (mean value) (ovariectomated rats [2]; [11]): 80.8 mg
- Weights of adrenal glands (mean value) (ovariectomated rats [2]; [12]): 56.6 mg
- IGF1 (= somatomedin C) (ovariectomated rats [3]; 100 μg/animal/day p.o. d1-d7, d 0 (prior to treatment)): 704.6 ± 70.4
- IGF1 (= somatomedin C) (ovariectomated rats [3]; 100 μg/animal/day p.o. d1-d7, d 4): 547.0 ± 88.7
- IGF1 (= somatomedin C) (ovariectomated rats [3]; 100 μg/animal/day p.o. d1-d7, d 8): 393.6 ± 71.1
- Highest AUC found, measured 0 to 24 hours after application [7]: 2.121 ng·h/mL
- Lowest AUC, measured 0 to 24 hours after application [7]: 0.284 ng·h/mL
